In paper PMC8281983 (Journal of the American Chemical Society, 2021):

Molecular target: T1, BRCA1-associated ATM activator 1 (BRAT1) (Homo sapiens, UniProt Q6PJG6)
T1 sequence (Q6PJG6 1-821): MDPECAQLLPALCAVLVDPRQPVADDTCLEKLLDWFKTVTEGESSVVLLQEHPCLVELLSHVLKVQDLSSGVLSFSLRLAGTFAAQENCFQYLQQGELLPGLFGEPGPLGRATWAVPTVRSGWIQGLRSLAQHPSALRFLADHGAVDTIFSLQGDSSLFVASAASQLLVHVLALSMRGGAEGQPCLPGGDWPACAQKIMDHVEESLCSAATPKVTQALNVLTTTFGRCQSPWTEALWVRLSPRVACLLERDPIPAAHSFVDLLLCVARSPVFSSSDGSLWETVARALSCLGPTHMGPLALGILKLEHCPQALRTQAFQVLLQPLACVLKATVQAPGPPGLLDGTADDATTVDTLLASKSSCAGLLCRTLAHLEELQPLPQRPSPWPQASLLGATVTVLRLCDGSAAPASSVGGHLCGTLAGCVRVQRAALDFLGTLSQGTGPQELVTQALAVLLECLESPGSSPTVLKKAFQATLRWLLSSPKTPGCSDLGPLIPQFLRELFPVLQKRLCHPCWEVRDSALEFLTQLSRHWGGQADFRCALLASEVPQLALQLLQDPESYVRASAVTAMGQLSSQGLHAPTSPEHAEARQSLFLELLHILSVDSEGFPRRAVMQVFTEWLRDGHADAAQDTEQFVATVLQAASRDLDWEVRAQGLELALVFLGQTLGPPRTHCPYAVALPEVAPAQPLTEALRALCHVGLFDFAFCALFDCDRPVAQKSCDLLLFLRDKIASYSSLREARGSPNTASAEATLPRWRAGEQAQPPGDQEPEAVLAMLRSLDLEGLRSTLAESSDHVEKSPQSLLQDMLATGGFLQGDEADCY
Assay type: cell-based

Work on `C=C(C)C1CCC(=C)C2C3=C(C[C@@](C)(O)C3=O)C(=O)C(C)=C[C@@H]12` (stereo partly shown) [1d, curcusone D] yielded an EC50 of 2700 nM.
